# Assay results: patent publication US20220273660A1, “MEK INHIBITOR FOR TREATMENT OF STROKE” (EDVINCE AB, priority 2019, published 2022)
# Test system: rat subarachnoid haemorrhage model
# Assay: Rat SAH model, intrathecal treatment, myograph of basilar arteries
# Format: in vivo
# Protocol: For contractility measurements, both incubated BAs (ex vivo) and BAs after surgical procedure (in vivo) were cut into segments and mounted on a pair of metal wires (40 μm) in a myograph bath. The arteries from OC were mounted the same way after 48 hours in media. One wire was attached to a micro-meter screw which allows for fine adjustments of the distance between the wires, controlling the vascular tone.
# The arterial segments were exposed two or three times with 60 mM K^+, by exchanging the buffer with a 60 mM K^+ buffer solution. To maintain equal osmolarity, a proportional amount of Na^+ had been removed from the buffer. An absolute cut-off was set at 2.0 mN K^+max for inclusion of arterial segments from rats that underwent the surgical procedure. Endothelium function was evaluated with the addition of 5-HT (3.10^−7 M) followed by carbachol (10^−5 M). For arteries from the OC the protocol was as followed: first a cumulative concentration-response curve to sarafotoxin 6C (S6c, 10^−14-10^−7 M), followed by a concentration-response curve to endothelin-1 (ET-1, 10^−14-10^−7 M). At peak ET-1 (10^−7 M), the buffer was changed to a Ca^2+-free buffer containing 10^−7 M ET-1 and nimodipine (L-type of voltage dependent Ca^2+ channel entry blocker, 10^−7 M). […] When vasodilation was investigated arteries was precontracted with U46619 (1.10^−7-3.10^−7 M) or K^+ (41 mM) and cumulative concentration-response curves was performed by adding calcitonin gene-related peptide (CGRP, 10^−12-10^−7 M), carbachol (10^−10-10^−5 M) or SNP (10^−11-10^−4 M).
# If there was only one curve above the cut-off, the concentration-response curve to ET-1 was prioritized. Segments with the highest K^+ response were generally allocated to the concentration-response curve to ET-1. […] The Ca^2+ free buffer solution had similar composition as above, but 1.5 mM CaCl2 was exchanged with 0.03 mM EDTA.
# Contractile responses of each segment were adjusted according to the length of the artery and are expressed as mN/mm (Nm^−1). […] To compare ET-1 sensitivity, arteries were normalized to the percentage of the individual vessel ET-1max. When the artery reached maximum contraction before the last concentration was added, the curves were constrained to the max contraction. The relative log IC50/log EC50 is the concentration corresponding to a response midway between the estimates of the lower and upper plateaus. The Emax is the maximal contraction in the concentration response curve and ET-1max is the maximal contraction to ET-1. All quantitative data is presented as mean±standard error of the mean (SEM), unless otherwise stated.
# Rats were anesthetized and prepared for cisternal infusion of autologous blood, which simulates a SAH. Sham-operated rats went through the same procedure, omitting the intracisternal blood injection of 300 μL. At the end of the procedure, a PinPort (PNP3F22, Instech, US) was placed at the end of the ICP catheter to provide access for intrathecal (i.t.) injectable treatments by a PinPort injector (PNP-3M, Instech, US). 24 hours post-surgery, the rats received s.c. injections of Carprofen (Norodyl, 5 mg/kg) (Scanvet, Denmark) for analgesia.
# The intrathecal (i.t.) treatment volumes were estimated for a cerebrospinal fluid (CSF) volume of approximately 90 μL (21) and the total dose was administered as three treatments (4 hours, 10 hours and 24 hours) through the PinPort in the ICP catheter placed in the cisterna magna during the surgical procedure. The first and third injections were given under fixation of the rat. […] Animals were given 2.5 ml isotonic saline s.c. to avoid dehydration, immediately after surgery and in conjunction with the 10 hours and 24 hours treatments.
smiles,measurement,setting,value
CC(=O)Nc1cccc(-n2c(=O)n(C3CC3)c(=O)c3c(Nc4ccc(I)cc4F)n(C)c(=O)c(C)c32)c1 [trametinib],K+ responses compared to i.t. vehicle,SAH + i.t. treatment,higher K^+ responses
same,"contraction at low ET-1 concentrations (10^-12.5-10^-11.0 M), ET-1max normalised, vs SAH+vehicle",SAH + i.t. treatment,significantly reduced
same,nimodipine insensitive ET-1max contraction,"SAH + i.t. treatment, Ca2+ curve, 10^-7 M nimodipine",1.8±0.5 Nm^−1
same,contractile response of BAs to 60 mM K+,"SAH + i.t. treatment, all BAs incl. below cut-off",5.00±0.29 Nm^−1
same,endothelium function,animals treated in vivo i.t. after SAH,No significant changes
